Data: US9884863B2, “STAT3 inhibitor” (Board of Regents, The University of Texas System, priority 2013, dated 2018)
Like-named read-outs stand apart in the source and are kept apart here.

Tests used:
[1] = system: MDA-MB-231; experiment: MTS cell proliferation assay, MDA-MB-231; assay type: cell-based, human; details: Homo sapiens, read-out: IC50 MDA-MB-231 (Table 1)
Protocol: (§1) Cancer cells (breast cancer cell lines MCF-7, MDA-MB-361, SKBR3 and MDA-MB-231, pancreatic cancer cell lines AsPC-1. BxPC3 and Panc-1) were seeded in 96-well plates at a density of 1000-2000 cells/well and treated with DMSO, 0.01, 0.1, 1, 5, 10, and 100 mM of STAT3 individual inhibitors for 72 hrs. Proliferation was measured by treating cells with the 3-(4,5-dimethylthiazol-2-yl)-5-(3-carboxymethoxyphenyl)-2-(4-sulfophenyl)-2H-tetrazolium) (MTS) in a CellTiter 96t AQueous Non-Radioactive Cell Proliferation Assay kit from Promega, Madison, Wis., USA). Absorbance of all wells was determined by measuring OD at 550 nm after 1 hr incubation at 37° C. on a 96-well iMark™ Microplate Absorbance Reader (BioRad, Hercules, Calif.).
In Vitro Determination of Effects of Synthesized Compounds on Cancer Cell Proliferation. Cancer cells (breast cancer cell lines MCF-7 and MDA-MB-231, pancreatic cancer cell lines AsPC-1 and Panc-1) were seeded in 96-well plates at a density of 2×10^3 cells/well and treated with DMSO, 0.01, 0.1, 1, 5, 10, and 100 μM of individual STAT3 inhibitors for 72 h. Proliferation was measured by treating cells with the 3-(4,5-dimethylthiazol-2-yl)-5-(3-carboxymethoxyphenyl)-2-(4-sulfophenyl)-2H-tetrazolium) (MTS) in a CellTiter 96t Aqueous Non-Radioactive Cell Proliferation Assay kit (Promega, Madison, Wis., USA). Absorbance of all wells was determined by measuring OD at 550 nm after 1 h incubation at 37° C. on a 96-well iMark™ Microplate Absorbance Reader (BioRad, Hercules, Calif.). Each individual compound was tested in quadruplicate wells for each concentration. […]

[2] = system: MCF-7; experiment: MTS cell proliferation assay, MCF-7; assay type: cell-based, human
Protocol: as §1, with “BxPC3 and Panc-1) were seeded in 96-well plates at a density of 1000-2000 cells/well and treated with DMSO, 0.01, 0.1, 1, 5, 10, and 100 mM of STAT3 individual inhibitors for 72 hrs.” left out, “Calif.). Each individual compound was tested in quadruplicate wells for each concentration, and the results were reported as mean absorption±s.e.” for “Calif.).”
In Vitro Determination of Effects of Synthesized Compounds on Cancer Cell Proliferation. Cancer cells (breast cancer cell lines MCF-7 and MDA-MB-231, pancreatic cancer cell lines AsPC-1 and Panc-1) were […], 0.01, 0.1, 1, 5, 10, […] Proliferation was measured by treating cells with the 3-(4,5-dimethylthiazol-2-yl)-5-(3-carboxymethoxyphenyl)-2-(4-sulfophenyl)-2H-tetrazolium) (MTS) in a CellTiter 96t Aqueous Non-Radioactive Cell Proliferation Assay kit (Promega, Madison, Wis., USA). Absorbance of all wells was determined by measuring OD at 550 nm after 1 h incubation at 37° C. on a 96-well iMark™ Microplate Absorbance Reader (BioRad, Hercules, Calif.). Each individual compound was tested in quadruplicate wells for each concentration.

[3] = Homo sapiens, MCF7, 72 h, read-out: IC50 MCF-7 (Table 1)
[4] = MDA-MB-231, ER-negative breast cancer, 72 hrs, >10 = no effect
[5] = Homo sapiens, MCF7, 72 h; read-out: IC50 MCF-7 (Table 1)

Compound | melting point | IC50 [1, 4] | IC50 [2, 5] | also measured
O=C(Nc1ccc2c(c1)S(=O)(=O)C=C2)c1c2ccccc2nc2ccccc12 | 237 to 238 °C | – | – | –
C[C@H](NC(=O)c1cc(Cl)ccc1O)c1ccccc1 [Compound 9, (S)-5-Chloro-2-hydroxy-N-(1-phenylethyl)benzamide] | 124 to 125 °C | – | – | –
O=C(Nc1nnc(-c2ccco2)o1)c1cc(Cl)ccc1O [Compound 13, 5-Chloro-N-(5-furan-2-yl-[1,3,4]oxadiazol-2-yl)-2-hydroxybenzamide] | 196 to 197 °C | – | – | –
O=C(Nc1ccc([N+](=O)[O-])cc1Cl)c1cc(Cl)ccc1OCCF [HJC-3-98, 5-Chloro-N-(2-chloro-4-nitro-phenyl)-2-(2-fluoro-ethoxy)benzamide] | – | – | – | IC50 ([1]; MDA-MB-231, 72 h): > 10 µM; IC50 [2, 3]: > 10 µM
O=C(Nc1ccc2c(c1)S(=O)(=O)C=C2)c1cc(Cl)ccc1OCCF [HJC-3-99, 5-Chloro-N-(1,1-dioxo-1H-1λ^6-benzo[b]thiophen-6-yl)-2-(2-fluoroethoxy)benzamide] | – | – | – | IC50 ([1]; MDA-MB-231, 72 h): 4.42 µM; IC50 [2, 3]: 4 µM
N#C/C(=C\c1ccc(O)c(O)c1)C(=O)Nc1ccc2c(c1)S(=O)(=O)C=C2 [HJC-4-11, 2-Cyano-3-(3,4-dihydroxy-phenyl)-N-(1,1-dioxo-1H-1λ^6-benzo[b]thiophen-6-yl)-acrylamide] | – | – | – | IC50 ([1]; MDA-MB-231, 72 h): > 10 µM; IC50 [2, 3]: 4.27 µM
O=C(Nc1ccc2c(c1)S(=O)(=O)C=C2)c1cc(Cl)ccc1OC1CCNCC1 [HJC-4-15, 5-Chloro-N-(1,1-dioxo-1H-1λ^6-benzo[b]thiophen-6-yl)-2-(piperidin-4-yloxy)benzamide] | – | 2.85 µM | 4.21 µM | –
CC(=O)N1CCC(Oc2ccc(Cl)cc2C(=O)Nc2ccc([N+](=O)[O-])cc2Cl)CC1 [HJC-4-22, 2-(1-Acetylpiperidin-4-yloxy)-5-chloro-N-(2-chloro-4-nitrophenyl)benzamide] | – | 5.87 µM | > 10 µM | –
Nc1ccc(NC(=O)c2cc(Cl)ccc2OC2CCNCC2)c(Cl)c1 [HJC-4-23, N-(4-Amino-2-chlorophenyl)-5-chloro-2-(piperidin-4-yloxy)benzamide] | – | – | – | IC50 ([1]; MDA-MB-231, 72 h): > 10 µM; IC50 [2, 3]: > 10 µM
CS(=O)(=O)N1CCC(Oc2ccc(Cl)cc2C(=O)Nc2ccc([N+](=O)[O-])cc2Cl)CC1 [HJC-4-24, 5-Chloro-N-(2-chloro-4-nitrophenyl)-2-(1-methanesulfonylpiperidin-4-yloxy)benzamide] | – | > 10 µM | > 10 µM | –
CC(=O)NCCOc1ccc(Cl)cc1C(=O)Nc1ccc([N+](=O)[O-])cc1Cl [HJC-4-25, 2-(2-Acetylaminoethoxy)-5-chloro-N-(2-chloro-4-nitrophenyl)benzamide] | – | > 10 µM | > 10 µM | –
CS(=O)(=O)NCCOc1ccc(Cl)cc1C(=O)Nc1ccc([N+](=O)[O-])cc1Cl [HJC-4-26, 5-Chloro-N-(2-chloro-4-nitrophenyl)-2-(2-methanesulfonylaminoethoxy)benzamide] | – | > 10 µM | > 10 µM | –
CC(=O)N1CCN(CCOc2ccc(Cl)cc2C(=O)Nc2ccc([N+](=O)[O-])cc2Cl)CC1 [HJC-4-27, 2-[2-(4-Acetylpiperazin-1-yl)-ethoxy]-5-chloro-N-(2-chloro-4-nitrophenyl)benzamide] | – | > 10 µM | > 10 µM | –
NCCCCOc1ccc(Cl)cc1C(=O)Nc1ccc([N+](=O)[O-])cc1Cl [HJC-4-31, 2-(4-Aminobutoxy)-5-chloro-N-(2-chloro-4-nitrophenyl)benzamide] | – | 2.37 µM | 3.7 µM | inhibition on breast cancer cell proliferation (FIG. 1) ([2]; MCF-7, 48 hr, μM concentrations): significant inhibition
CC(=O)Nc1ccc(NC(=O)c2cc(Cl)ccc2OC2CCNCC2)c(Cl)c1 [HJC-4-32, N-(4-Acetylamino-2-chloro-phenyl)-5-chloro-2-(piperidin-4-yloxy)benzamide] | – | > 10 µM | > 10 µM | –
CS(=O)(=O)N(c1ccc(NC(=O)c2cc(Cl)ccc2OC2CCNCC2)c(Cl)c1)S(C)(=O)=O [HJC-4-35-1] | – | > 10 µM | > 10 µM | –

Compound | melting point | IC50 [1, 4] | IC50 [2, 5] | also measured
CS(=O)(=O)Nc1ccc(NC(=O)c2cc(Cl)ccc2OC2CCNCC2)c(Cl)c1 [HJC-4-35-2] | – | > 10 µM | > 10 µM | –
Cc1cccc(/C=C(\C#N)C(=O)Nc2ccc3c(c2)S(=O)(=O)C=C3)n1 [HJC-5-88, 2-Cyano-N-(1,1-dioxo-1H-1λ^6-benzo[b]thiophen-6-yl)-3-(6-methyl-pyridin-2-yl)acrylamide] | 221 to 222 °C | – | – | –
N#C/C(=C\c1cccc(Cl)c1)C(=O)Nc1ccc2c(c1)S(=O)(=O)C=C2 [HJC-5-89, 3-(3-Chlorophenyl)-2-cyano-N-(1,1-dioxo-1H-1λ^6-benzo[b]thiophen-6-yl)acrylamide] | 234 to 235 °C | – | – | –
N#C/C(=C\c1ccccn1)C(=O)Nc1ccc2c(c1)S(=O)(=O)C=C2 [HJC-5-90, 2-Cyano-N-(1,1-dioxo-1H-1λ^6-benzo[b]thiophen-6-yl)-3-pyridin-2-yl-acrylamide] | 234 to 235 °C | – | – | –
N#C/C(=C\c1c(F)cccc1F)C(=O)Nc1ccc2c(c1)S(=O)(=O)C=C2 [HJC-5-91, 2-Cyano-3-(2,6-difluorophenyl)-N-(1,1-dioxo-1H-1λ^6-benzo[b]thiophen-6-yl)acrylamide] | 253 to 254 °C | – | – | –
N#C/C(=C\c1ccccc1Br)C(=O)Nc1ccc2c(c1)S(=O)(=O)C=C2 [RMF-1-7, 3-(2-Bromophenyl)-2-cyano-N-(1,1-dioxo-1H-1λ^6-benzo[b]thiophen-6-yl)acrylamide] | 226 to 227 °C | – | – | –
N#C/C(=C\c1ccc(Br)cc1)C(=O)Nc1ccc2c(c1)S(=O)(=O)C=C2 [RMF-1-8, 3-(4-Bromophenyl)-2-cyano-N-(1,1-dioxo-1H-1λ^6-benzo[b]thiophen-6-yl)acrylamide] | 289 to 290 °C | – | – | –
N#C/C(=C\c1ccccc1O)C(=O)Nc1ccc2c(c1)S(=O)(=O)C=C2 [RMF-1-9, 2-Cyano-N-(1,1-dioxo-1H-1λ^6-benzo[b]thiophen-6-yl)-3-(2-hydroxyphenyl)acrylamide] | 284 to 285 °C | – | – | –
N#C/C(=C\c1cccc(O)c1)C(=O)Nc1ccc2c(c1)S(=O)(=O)C=C2 [RMF-1-10, 2-Cyano-N-(1,1-dioxo-1H-1λ^6-benzo[b]thiophen-6-yl)-3-(3-hydroxyphenyl)acrylamide] | 262 to 263 °C | – | – | –
N#C/C(=C\c1ccc(O)cc1)C(=O)Nc1ccc2c(c1)S(=O)(=O)C=C2 [RMF-1-11, 2-Cyano-N-(1,1-dioxo-1H-1λ^6-benzo[b]thiophen-6-yl)-3-(4-hydroxyphenyl)acrylamide] | 306 to 307 °C | – | – | –
COc1ccccc1/C=C(\C#N)C(=O)Nc1ccc2c(c1)S(=O)(=O)C=C2 [RMF-1-12, 2-Cyano-N-(1,1-dioxo-1H-1λ^6-benzo[b]thiophen-6-yl)-3-(2-methoxyphenyl)acrylamide] | 223 to 224 °C | – | – | –
COc1ccc(/C=C(\C#N)C(=O)Nc2ccc3c(c2)S(=O)(=O)C=C3)cc1 [RMF-1-13, 2-Cyano-N-(1,1-dioxo-1H-1λ^6-benzo[b]thiophen-6-yl)-3-(4-methoxyphenyl)acrylamide] | 275 to 276 °C | – | – | –
Cc1cc(C)c(/C=C(\C#N)C(=O)Nc2ccc3c(c2)S(=O)(=O)C=C3)c(C)c1 [RMF-1-14, 2-Cyano-N-(1,1-dioxo-1H-1λ^6-benzo[b]thiophen-6-yl)-3-(2,4,6-trimethylphenyl)acrylamide] | 255 to 256 °C | – | – | –
N#C/C(=C\c1cccc([N+](=O)[O-])c1)C(=O)Nc1ccc2c(c1)S(=O)(=O)C=C2 [RMF-1-15, 2-Cyano-N-(1,1-dioxo-1H-1λ^6-benzo[b]thiophen-6-yl)-3-(3-nitrophenyl)acrylamide] | 269 to 270 °C | – | – | –
CN(C)c1ccc(/C=C(\C#N)C(=O)Nc2ccc3c(c2)S(=O)(=O)C=C3)cc1 [RMF-1-16, 2-Cyano-3-(4-dimethylaminophenyl)-N-(1,1-dioxo-1H-1λ^6-benzo[b]thiophen-6-yl)acrylamide] | 279 to 280 °C | – | – | –
